Results published in patent US10520509B2 (Washington State University, priority 2016, dated 2019).

What was measured:
[1] = tested on: HeLa cells; experiment: Fluorescence imaging of H2S and H2Sn with DDP probe in cells; format: cell-based; conditions: probe 20 μm 30 min
Protocol: (§1) In another embodiment the DDP probes has been designed to visuals exogenous sulfur species in a living system. […] Additionally, the selectivity of the probes can be seen in FIG. 10. […] The probe (20 μm) was applied to the cells for 30 minutes, after which the extracellular probe was washed off and only a weak fluorescence was observed.
The cells were grown on glass-bottom culture dishes (Corning Inc.) in DMEM supplemented with 10% (v/v) FBS, penicillin (100 U/mL) and streptomycin (100 μg/mL) at 37° C. under a humidified atmosphere containing 5% CO2. Before use, the adherent cells were washed one time with FBS-free DMEM. […] After removal of excess probe and washed with PBS (pH 7.4), the cells were incubated with 30 μM Na2S2 or 30 μM Na2S4 at room temperature for 20 min in PBS buffer (pH 7.4, containing 100 μM CTAB). Cell imaging was carried out after removal of the culture solution. For images of CSE-overexpressed COS7 cells.

[2] = tested on: HeLa cells; experiment: Cell viability assay (CCK-8) of DDP probe; format: cell-based; conditions: 10-100 μM, 6 h
Protocol: as §1
HeLa cells were cultured in DMEM high glucose medium supplemented with 10% fetal bovine serum (FBS) at 37° C. under an atmosphere of 5% CO2 and 95% air. The cells were then inoculated in 96-well plates and cultured overnight. DDP-1 in FBS-free medium were administered and cultured for 6 h. The cell viability was measured by cell counter kit (CCK)-8. The absorbance at 450 nm was measured with a microplate reader. Optical density (OD) of the 9 wells in the indicated groups was used to calculate percentage of cell viability according to the formula below: Percentage of cell viability=OD treatment group/OD control group×100% Cell Culture and Fluorescence Imaging

For [N-]=[N+]=Nc1ccc2c(CC(=O)N3CCN(c4ccc5c(c4)Oc4cc(OC(=O)c6ccccc6SC(=O)c6ccccc6)ccc4C54OC(=O)c5ccccc54)CC3)cc(=O)oc2c1 (stereo not drawn) [DDP-1], the “fluorescence in cells after Na2S treatment” value ([1]; Na2S 100 μm, blue and green channel) was “apparent fluorescence enhancement”, the “fluorescence in cells after Na2S2 or in situ generated H2Sn” value ([1]; blue vs green channel) was “blue channel decreased with a coinstantaneous increase in the green channel” and the “cytotoxicity (cell viability)” value [2] was “low cytotoxicity”.
